Several values for one entry are separate records, joined by “and”; a condition that tells them apart may be missing. Equal entries are not always repeated. Activity calls are given as the source filed them.
Columns and labels:
[1] = target: C-C chemokine receptor type 6 (Homo sapiens, UniProt P51684); test: antagonism of CCR6 beta-arrestin recruitment – cell-based, luminescent beta-arrestin readout, dose response (AID 504728); type: functional
[2] = Luminescence Cell-Based Dose Retest to Confirm Inhibitors of Cancer Stem Cells. [Related pubchem assays (depositor defined):AID2717, AID2721]; type: functional; details: Homo sapiens
Beta-galactosidase = Beta-galactosidase (Escherichia coli, UniProt Q8VNN2); test: detection-enzyme interference by beta-gal modulators – biochemical, E. coli enzyme, set 3, artefact control for CCR6 antagonist project, dose response (AID 504712); type: functional
Cytochrome P450 2D6 = Cytochrome P450 2D6 (Homo sapiens, UniProt P10635); test: qHTS Assay for Inhibitors and Substrates of Cytochrome P450 2D6. [Related pubchem assays: 410 ]; type: ADME; details: read-out: Potency
Cytochrome P450 2D6, sequence (P10635 whole entry): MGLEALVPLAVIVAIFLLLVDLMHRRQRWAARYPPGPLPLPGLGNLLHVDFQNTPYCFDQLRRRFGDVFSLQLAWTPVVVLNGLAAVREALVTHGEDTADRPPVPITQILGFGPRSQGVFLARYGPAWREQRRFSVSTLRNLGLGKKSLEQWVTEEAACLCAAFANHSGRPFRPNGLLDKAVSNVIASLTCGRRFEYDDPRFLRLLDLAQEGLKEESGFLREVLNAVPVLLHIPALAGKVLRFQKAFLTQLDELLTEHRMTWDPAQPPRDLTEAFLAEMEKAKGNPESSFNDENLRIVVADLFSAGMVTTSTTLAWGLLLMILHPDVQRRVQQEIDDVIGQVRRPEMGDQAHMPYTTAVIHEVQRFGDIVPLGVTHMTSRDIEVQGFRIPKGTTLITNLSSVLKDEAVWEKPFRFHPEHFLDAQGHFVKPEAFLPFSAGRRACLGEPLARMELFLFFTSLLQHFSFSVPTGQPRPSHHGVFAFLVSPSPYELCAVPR

Cytochrome P450 2C9 = Cytochrome P450 2C9 (Homo sapiens, UniProt P11712); details: Potency
[3] = target: T1, Eukaryotic translation initiation factor 2-alpha kinase 3 (Homo sapiens, UniProt Q9NZJ5); test: Dose response cell-based high-throughput screening assay to measure PERK inhibition. [Related pubchem assays: 1416 ]; type: functional
T1 sequence (Q9NZJ5 whole entry): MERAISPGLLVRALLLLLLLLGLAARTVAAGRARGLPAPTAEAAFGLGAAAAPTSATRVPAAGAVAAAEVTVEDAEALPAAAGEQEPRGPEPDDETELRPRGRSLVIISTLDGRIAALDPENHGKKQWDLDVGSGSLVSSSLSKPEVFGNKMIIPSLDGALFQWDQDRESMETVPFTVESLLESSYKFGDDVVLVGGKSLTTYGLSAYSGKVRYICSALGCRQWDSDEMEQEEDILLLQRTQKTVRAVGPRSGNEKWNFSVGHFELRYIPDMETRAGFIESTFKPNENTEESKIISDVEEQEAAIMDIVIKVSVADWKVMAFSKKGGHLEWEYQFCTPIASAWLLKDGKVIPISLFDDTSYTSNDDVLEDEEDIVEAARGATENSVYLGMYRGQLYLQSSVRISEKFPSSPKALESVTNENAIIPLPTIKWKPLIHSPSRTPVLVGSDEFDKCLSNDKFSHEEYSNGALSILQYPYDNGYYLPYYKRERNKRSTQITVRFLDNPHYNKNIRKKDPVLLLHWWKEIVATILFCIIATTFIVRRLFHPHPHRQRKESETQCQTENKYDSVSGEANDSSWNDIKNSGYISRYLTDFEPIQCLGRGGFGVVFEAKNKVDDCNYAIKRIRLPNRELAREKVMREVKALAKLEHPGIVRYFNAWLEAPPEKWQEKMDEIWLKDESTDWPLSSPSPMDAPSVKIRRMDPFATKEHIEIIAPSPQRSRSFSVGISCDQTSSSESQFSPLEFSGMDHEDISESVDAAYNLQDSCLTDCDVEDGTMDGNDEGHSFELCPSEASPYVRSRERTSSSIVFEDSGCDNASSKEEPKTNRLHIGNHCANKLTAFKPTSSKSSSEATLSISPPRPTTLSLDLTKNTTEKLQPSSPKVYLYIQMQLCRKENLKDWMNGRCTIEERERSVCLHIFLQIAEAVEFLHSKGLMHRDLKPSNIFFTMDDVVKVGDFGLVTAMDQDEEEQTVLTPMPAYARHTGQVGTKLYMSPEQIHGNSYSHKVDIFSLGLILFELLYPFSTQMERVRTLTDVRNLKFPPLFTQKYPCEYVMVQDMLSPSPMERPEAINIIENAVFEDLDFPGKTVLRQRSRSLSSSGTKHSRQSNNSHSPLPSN

[4] = target: T1, Eukaryotic translation initiation factor 2-alpha kinase 3; test: Counterscreen assay for PERK inhibitors: Dose response cell-based high throughput screening assay to measure inhibition of PERK at 6 hours. [Related pubchem assays: 1522, 1416 ]; type: functional
[5] = target: Sphingosine 1-phosphate receptor 4 (Homo sapiens, UniProt O95977); test: potency of S1P4 activators – cell-based, fluorescence, synthesized compounds, late-stage follow-up (AID 463107); type: functional
CAAX prenyl protease 2 [6] = target: CAAX prenyl protease 2 (Homo sapiens, UniProt Q9Y256); test: inhibition of Ras-converting CAAX protease Rce1 – biochemical, yeast membranes, quenched-peptide fluorescence, cherry-pick, dose response (AID 588849)
CAAX prenyl protease 2 [7] = target: CAAX prenyl protease 2 (Saccharomyces cerevisiae S288c, UniProt Q03530); type: biochemical
[8] = target: T2, Tyrosine-protein phosphatase non-receptor type 7 (Homo sapiens, UniProt P35236); test: redox-active compounds inhibiting HePTP phosphatase – biochemical, fluorescence, mechanism study (AID 2068); type: functional
T2 sequence (P35236 whole entry): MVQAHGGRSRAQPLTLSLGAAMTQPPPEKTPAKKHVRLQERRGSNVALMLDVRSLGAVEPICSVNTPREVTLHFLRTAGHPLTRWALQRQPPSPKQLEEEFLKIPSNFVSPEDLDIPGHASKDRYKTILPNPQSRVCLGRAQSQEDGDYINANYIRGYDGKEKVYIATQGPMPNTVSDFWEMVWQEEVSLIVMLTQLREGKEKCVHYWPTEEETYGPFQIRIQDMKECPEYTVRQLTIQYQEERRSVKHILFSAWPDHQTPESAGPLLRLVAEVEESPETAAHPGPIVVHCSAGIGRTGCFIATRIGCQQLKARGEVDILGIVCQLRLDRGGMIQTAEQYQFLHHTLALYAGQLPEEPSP

[9] = target: T3, Dual specificity protein phosphatase 3 (Homo sapiens, UniProt P51452); test: SAR VHR1 Fluorescent Assay for In Vitro dose response studies. [Related pubchem assays (depositor defined):AID1654, AID1661, AID1878, AID1992, AID2004, AID2070, AID2085]; type: functional
T3 sequence (P51452 whole entry): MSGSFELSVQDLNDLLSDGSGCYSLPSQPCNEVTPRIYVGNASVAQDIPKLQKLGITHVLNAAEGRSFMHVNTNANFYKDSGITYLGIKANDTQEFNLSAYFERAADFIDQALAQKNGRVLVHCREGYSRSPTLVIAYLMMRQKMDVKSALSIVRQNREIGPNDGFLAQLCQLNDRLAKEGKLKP

[10] = target: Glyceraldehyde-3-phosphate dehydrogenase (Homo sapiens, UniProt P04406)
[11] = target: T4, Dual specificity protein phosphatase 6 (Rattus norvegicus, UniProt Q64346)
T4 sequence (Q64346 whole entry): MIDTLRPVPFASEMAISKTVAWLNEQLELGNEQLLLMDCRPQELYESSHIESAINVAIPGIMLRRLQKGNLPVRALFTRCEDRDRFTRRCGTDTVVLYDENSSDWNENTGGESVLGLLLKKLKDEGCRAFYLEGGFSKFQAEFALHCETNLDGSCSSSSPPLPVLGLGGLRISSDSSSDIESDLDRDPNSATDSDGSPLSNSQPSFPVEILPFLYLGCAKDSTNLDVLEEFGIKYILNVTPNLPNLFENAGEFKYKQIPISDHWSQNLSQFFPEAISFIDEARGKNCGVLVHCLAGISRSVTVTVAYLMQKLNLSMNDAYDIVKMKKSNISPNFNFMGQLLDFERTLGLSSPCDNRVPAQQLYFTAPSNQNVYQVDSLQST

[12] = target: T4, Dual specificity protein phosphatase 6; type: functional
[13] = target: T2, Tyrosine-protein phosphatase non-receptor type 7; type: functional
[14] = target: T3, Dual specificity protein phosphatase 3; test: MOA VHR1 Fluorescent secondary assay for identification of redox-state modulating compounds. [Related pubchem assays (depositor defined):AID1654, AID1661, AID1878, AID1957]
[15] = target: DNA dC->dU-editing enzyme APOBEC-3G (Homo sapiens, UniProt Q9HC16); test: Dose Response confirmation of small molecule APOBEC3G DNA Deaminase Inhibitors via a fluorescence-based single-stranded DNA deaminase assay. [Related pubchem assays (depositor defined):AID493012, AID493028]; type: functional
[16] = target: T5, Voltage-gated N-type calcium channel alpha-1B subunit/Amyloid beta A4 precursor protein-binding family A member 1 (Homo sapiens, UniProt Q00975+Q02410); type: protein assay
T5 sequence (Q00975 whole entry): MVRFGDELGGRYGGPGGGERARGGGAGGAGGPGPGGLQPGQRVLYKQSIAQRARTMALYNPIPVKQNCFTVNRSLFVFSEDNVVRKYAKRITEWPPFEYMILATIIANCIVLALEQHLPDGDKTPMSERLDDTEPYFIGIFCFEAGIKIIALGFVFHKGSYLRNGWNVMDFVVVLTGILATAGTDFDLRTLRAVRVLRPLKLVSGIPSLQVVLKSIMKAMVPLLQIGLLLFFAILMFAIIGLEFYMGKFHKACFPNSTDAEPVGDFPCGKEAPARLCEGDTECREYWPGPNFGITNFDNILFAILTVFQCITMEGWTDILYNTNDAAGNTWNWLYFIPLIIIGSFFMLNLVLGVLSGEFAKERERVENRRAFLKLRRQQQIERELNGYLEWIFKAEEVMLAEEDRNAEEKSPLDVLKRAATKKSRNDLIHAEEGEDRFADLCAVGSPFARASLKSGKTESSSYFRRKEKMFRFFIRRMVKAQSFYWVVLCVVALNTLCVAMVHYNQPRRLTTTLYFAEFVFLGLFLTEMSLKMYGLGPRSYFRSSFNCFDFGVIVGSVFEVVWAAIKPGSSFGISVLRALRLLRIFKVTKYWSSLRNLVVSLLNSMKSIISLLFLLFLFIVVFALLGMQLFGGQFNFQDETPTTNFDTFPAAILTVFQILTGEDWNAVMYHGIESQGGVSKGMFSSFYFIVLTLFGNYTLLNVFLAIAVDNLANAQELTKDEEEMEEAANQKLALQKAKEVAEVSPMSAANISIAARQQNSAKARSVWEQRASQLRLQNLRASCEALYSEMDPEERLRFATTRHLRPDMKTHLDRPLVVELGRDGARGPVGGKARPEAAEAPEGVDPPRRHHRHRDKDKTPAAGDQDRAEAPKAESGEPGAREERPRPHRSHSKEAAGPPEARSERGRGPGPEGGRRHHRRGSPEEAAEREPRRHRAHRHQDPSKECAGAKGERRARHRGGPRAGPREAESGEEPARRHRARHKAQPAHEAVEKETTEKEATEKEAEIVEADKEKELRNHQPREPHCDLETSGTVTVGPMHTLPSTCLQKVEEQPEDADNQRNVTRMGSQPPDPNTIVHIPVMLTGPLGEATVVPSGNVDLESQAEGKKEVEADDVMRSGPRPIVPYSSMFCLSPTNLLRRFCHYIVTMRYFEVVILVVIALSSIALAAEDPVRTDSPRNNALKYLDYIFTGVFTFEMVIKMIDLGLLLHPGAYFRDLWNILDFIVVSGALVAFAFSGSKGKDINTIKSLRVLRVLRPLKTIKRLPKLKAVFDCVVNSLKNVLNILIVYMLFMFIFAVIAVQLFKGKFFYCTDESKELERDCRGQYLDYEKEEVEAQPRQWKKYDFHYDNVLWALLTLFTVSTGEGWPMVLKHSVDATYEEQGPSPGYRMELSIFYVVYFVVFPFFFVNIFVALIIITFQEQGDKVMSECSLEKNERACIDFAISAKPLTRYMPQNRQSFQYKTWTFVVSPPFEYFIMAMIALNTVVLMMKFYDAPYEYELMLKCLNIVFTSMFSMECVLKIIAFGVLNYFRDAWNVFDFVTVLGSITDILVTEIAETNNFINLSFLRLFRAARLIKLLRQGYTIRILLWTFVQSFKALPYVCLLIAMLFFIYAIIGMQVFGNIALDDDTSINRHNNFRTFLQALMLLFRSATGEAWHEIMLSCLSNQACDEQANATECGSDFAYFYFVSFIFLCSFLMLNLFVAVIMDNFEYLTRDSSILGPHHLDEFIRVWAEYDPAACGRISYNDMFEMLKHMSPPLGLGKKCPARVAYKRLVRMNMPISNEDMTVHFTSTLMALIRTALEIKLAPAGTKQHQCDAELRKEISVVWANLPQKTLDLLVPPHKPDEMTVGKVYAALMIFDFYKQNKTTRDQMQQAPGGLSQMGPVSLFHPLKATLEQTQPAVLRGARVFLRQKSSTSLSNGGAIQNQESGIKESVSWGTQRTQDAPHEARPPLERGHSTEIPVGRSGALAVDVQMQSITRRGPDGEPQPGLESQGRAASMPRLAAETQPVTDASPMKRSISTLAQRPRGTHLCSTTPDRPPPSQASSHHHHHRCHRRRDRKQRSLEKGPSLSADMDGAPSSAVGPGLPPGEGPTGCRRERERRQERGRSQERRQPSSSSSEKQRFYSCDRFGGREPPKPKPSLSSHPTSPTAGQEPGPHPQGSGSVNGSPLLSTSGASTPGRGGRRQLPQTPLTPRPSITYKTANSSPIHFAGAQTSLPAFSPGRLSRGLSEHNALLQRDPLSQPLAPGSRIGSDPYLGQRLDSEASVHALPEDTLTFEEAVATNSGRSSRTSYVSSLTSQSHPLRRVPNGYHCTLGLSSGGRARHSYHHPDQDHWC
T5 sequence (Q02410 whole entry): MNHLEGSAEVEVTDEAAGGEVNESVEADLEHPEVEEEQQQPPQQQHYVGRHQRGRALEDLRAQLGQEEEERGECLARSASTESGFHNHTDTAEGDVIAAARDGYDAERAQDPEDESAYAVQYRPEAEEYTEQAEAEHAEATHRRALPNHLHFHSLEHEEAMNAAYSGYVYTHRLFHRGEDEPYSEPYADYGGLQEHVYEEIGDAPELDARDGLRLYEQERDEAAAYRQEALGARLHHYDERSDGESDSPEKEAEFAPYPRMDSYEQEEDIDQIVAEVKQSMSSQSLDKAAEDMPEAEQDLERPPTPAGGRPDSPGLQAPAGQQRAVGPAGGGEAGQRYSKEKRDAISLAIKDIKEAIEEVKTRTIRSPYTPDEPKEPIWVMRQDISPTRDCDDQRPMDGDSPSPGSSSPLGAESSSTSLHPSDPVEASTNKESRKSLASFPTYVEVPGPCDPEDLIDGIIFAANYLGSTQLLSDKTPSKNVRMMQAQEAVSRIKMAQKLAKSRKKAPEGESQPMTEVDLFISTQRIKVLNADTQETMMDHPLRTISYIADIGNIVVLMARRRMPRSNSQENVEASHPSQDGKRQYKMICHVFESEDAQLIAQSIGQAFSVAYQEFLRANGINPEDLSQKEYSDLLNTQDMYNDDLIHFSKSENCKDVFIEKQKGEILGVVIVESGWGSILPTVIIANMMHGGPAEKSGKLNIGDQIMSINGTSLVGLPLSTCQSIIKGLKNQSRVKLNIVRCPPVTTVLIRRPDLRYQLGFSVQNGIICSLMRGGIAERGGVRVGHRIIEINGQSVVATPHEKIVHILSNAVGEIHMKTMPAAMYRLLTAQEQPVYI

[17] = viability of HCT116 lacking mutant beta-catenin – cell-based, human colon tumor, dose response (AID 1045); type: functional;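 also: HCT116 colon tumor cells with beta catenin knocked out; cells exposed to compound for 60 hours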
Large T antigen = Large T antigen (Simian virus 40, UniProt P03070); type: functional, Betapolyomavirus macacae;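 also: Confirmatory-stage PubChem screen for compounds that inhibit SV40 T antigen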
[18] = target: T5, Voltage-gated N-type calcium channel alpha-1B subunit/Amyloid beta A4 precursor protein-binding family A member 1; type: protein assay; remark: listed apart in the source
[19] = target: Glucose-6-phosphate 1-dehydrogenase (Homo sapiens, UniProt P11413); test: inhibition of Homo sapiens G6PD, dose series – biochemical, fluorescence, selectivity assay for P. falciparum G6PD inhibitor project, dose response (AID 504792); type: functional
[20] = viability of PTEN-deleted HCT116 cells – cell-based, HCT116 PTEN knockout, dose response (AID 1047); type: functional;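 also: HCT116 colon tumor cells with PTEN knocked out; cells exposed to compound for 60 hours before readout; potency for loss of cell viability measured by luminescence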

Compound: C=C(CC[C@@H](O)C(C)(C)O)[C@H]1CC[C@]2(C)[C@@H]1CC[C@@H]1[C@@]3(C)CC[C@H](O)C(C)(C)C3CC[C@]12C (some centres undefined)
- IC50 [1]: > 66.6 µM (inactive)
- AC50 [2]: 0.561 µM (active)
- IC50 (Beta-galactosidase): > 66.6 µM (inactive)

Compound: COC(=O)[C@@H]1[C@H]2C[C@H]3c4[nH]c5cc(OC)ccc5c4CCN3C[C@@H]2C[C@@H](OC(=O)c2cc(OC)c(OC)c(OC)c2)[C@@H]1OC
- AC50 (Cytochrome P450 2D6): 39.8 µM (inconclusive) and 12.6 µM (inconclusive)
- AC50 (Cytochrome P450 2C9): 15.8 µM (inconclusive)

Compound: Cc1cc2c(NC(=O)Nc3ccc(F)cc3)cccc2nn1
- EC50 [3]: > 55.7 µM (not active)
- EC50 [4]: > 55.7 µM (not active)

Compound: Cc1ccc(OCCOc2ccc(C)nc2[N+](=O)[O-])c([N+](=O)[O-])n1
- EC50 [5]: > 50 µM (inactive)

Compound: Cc1cc(C)nc(SCc2cn3c(C)cc(C)nc3n2)n1
- AC50 (CAAX prenyl protease 2 [6]): 35.2 µM (active)
- AC50 (CAAX prenyl protease 2 [7]): 35.7 µM (active)

Compound: O=c1/c(=C/c2ccc(-c3ccccc3[N+](=O)[O-])o2)sc2nc3cc(Br)cnc3n12
- IC50 [8]: 4.13 µM (active)
- IC50 [9]: 12.1 µM (active)
- IC50 [10]: > 100 µM (not active)
- IC50 [11]: 49 µM (active)
- IC50 [12]: 55.5 µM (active)
- IC50 [13]: 43.9 µM (active)
- IC50 [14]: 5.53 µM (active)

Compound: Cc1cc(C)c2c(=O)n(CC(=O)N3CCC(N4CCCCC4)CC3)sc2n1
- IC50 [15]: 9.83 µM (active)
- IC50 [16]: 16.2 µM (active)
- EC50 [17]: 18.6 µM (active)
- IC50 (Large T antigen): 28.1 µM (active)
- IC50 [18]: > 50 µM (inactive)
- IC50 [19]: 37 µM (inactive)
- EC50 [20]: 22.6 µM (active)

— ChEMBL document CHEMBL1201862, “PubChem BioAssay data set” (2004)
